For 22 compounds, IC50 results are on record in patent US12479827B2, “Heteroaromatic carboxamide derivatives as plasma kallikrein inhibitors” (Boehringer Ingelheim International GmbH, priority 2020, dated 2025).

The target in one test is T1, Human PKK (Homo sapiens, UniProt P03952).
T1 construct: purchased Enzyme Research Laboratories
The test can be described thus: Inhibition of PKK using an endpoint assay (human PKK). The format is biochemical. Conditions: fluorogenic substrate H-Pro-Phe-Arg-AMC, 1 h room temperature, method names human or rat PKK, table does not say which. In a few lines: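 Endpoint fluorescence (ex 355 nm, em 460 nm) after stopping with 1 μM final PPACK II. Buffer: Tris 100 mM pH 7.8, NaCl 150 mM, BSA 0.1%, Tween20 0.05%, with 1% DMSO present; enzyme is human plasma kallikrein.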

Test [1] addresses T2, PKK in kaolin activated human platelet poor plasma (Homo sapiens, UniProt P03952).
T2 construct: Platelet poor plasma (PPP) obtained from human wholeblood; from tissue
The test can be described thus: Inhibition of PKK in kaolin activated human PPP.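 Note: readout is the rate of fluorogenic substrate cleavage in rfu per min.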 The test is classed as biochemical. The conditions noted are these: 25-750 μg/mL kaolin, global fit, text b200 calls the values IC90. The protocol:
Platelet poor plasma (PPP) obtained from human wholeblood, anticoagulated with Na-Citrate, is incubated with various concentrations of the test compound together with either 25, 75, 250, or 750 μg/mL kaolin in assay buffer for 20 min at 37° C. such that for each kaolin dose used a concentration response is obtained for the test compound.

T1 sequence (P03952 20-390 limits assumed): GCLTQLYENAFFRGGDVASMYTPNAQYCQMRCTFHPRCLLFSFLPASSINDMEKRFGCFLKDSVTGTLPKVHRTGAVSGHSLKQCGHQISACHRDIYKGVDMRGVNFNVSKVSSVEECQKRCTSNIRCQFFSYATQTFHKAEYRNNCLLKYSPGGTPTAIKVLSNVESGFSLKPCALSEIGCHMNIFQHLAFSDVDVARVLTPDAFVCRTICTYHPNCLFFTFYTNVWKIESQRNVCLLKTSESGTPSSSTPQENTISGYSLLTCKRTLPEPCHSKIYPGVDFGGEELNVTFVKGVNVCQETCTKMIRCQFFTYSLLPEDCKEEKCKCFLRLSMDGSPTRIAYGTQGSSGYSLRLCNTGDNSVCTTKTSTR
T1 sequence (P03952 391-638 limits assumed): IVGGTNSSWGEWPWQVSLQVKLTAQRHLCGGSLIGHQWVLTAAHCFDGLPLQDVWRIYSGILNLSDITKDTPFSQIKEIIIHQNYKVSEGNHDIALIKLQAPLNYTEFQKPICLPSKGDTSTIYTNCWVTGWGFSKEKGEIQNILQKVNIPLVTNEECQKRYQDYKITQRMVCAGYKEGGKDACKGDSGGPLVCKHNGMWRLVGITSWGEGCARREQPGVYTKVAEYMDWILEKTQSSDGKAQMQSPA
T2 sequence (P03952 391-638 limits assumed): as above
T2 sequence (P03952 20-390 limits assumed): as the sequence (P03952 20-390 limits assumed) above

As to `Cn1cnc2c1CC[C@H]2NC(=O)c1cnn(Cc2ccc(N3CC4C(C3)C4(F)F)nc2C(F)F)c1` (stereo partly drawn) [Example 46, 1-[(6-{6,6-Difluoro-3-azabicyclo[3.1.0]hexan-3-yl}-2-(difluoromethyl)pyridin-3-yl)methyl]-N-[(4R)-1-methyl-1H,4H,5H,6H-cyclopenta-[d]imidazol-4-yl]-1H-pyrazole-4-carboxamide], the IC50 (usually the concentration that gives 50% inhibition) was 1 nM against Human PKK and 162 nM in test [1].
Turning to `Cn1cnc2c1CC[C@H]2NC(=O)c1cnn(Cc2ccc(N3CC4CC4C3)nc2C(F)F)c1` (stereo partly drawn) [Example 48, 1-[(6-{3-Azabicyclo[3.1.0]hexan-3-yl}-2-(difluoromethyl)-pyridin-3-yl)methyl]-N-[(4R)-1-methyl-1H,4H,5H,6H-cyclopenta[d]imidazol-4-yl]-1H-pyrazole-4-carboxamide], the IC50 stood at 2.8 nM on Human PKK and 612 nM in test [1].
On to `Cn1cnc2c1CC[C@H]2NC(=O)c1cn(Cc2ccc(N3CC4C(C3)C4(F)F)nc2CO)nn1` (stereo partly drawn) [Example 50, 1-[(6-{6,6-Difluoro-3-azabicyclo[3.1.0]hexan-3-yl}-2-(hydroxymethyl)pyridin-3-yl)methyl]-N-[(4R)-1-methyl-1H,4H,5H,6H-cyclopenta[d]-imidazol-4-yl]-1H-1,2,3-triazole-4-carboxamide], for which the IC50 against Human PKK was 1.7 nM; in test [1], 110 nM.
With `Cn1cnc2c1CC[C@H]2NC(=O)c1cn(Cc2ccc(N3CC4C(C3)C4(F)F)cn2)cn1` (stereo partly drawn) [Example 53, 1-[(5-{6,6-Difluoro-3-azabicyclo[3.1.0]hexan-3-yl}pyridin-2-yl)methyl]-N-[(4R)-1-methyl-1H,4H,5H,6H-cyclopenta[d]imidazol-4-yl]-1H-imidazole-4-carboxamide], the values for the IC50 (against Human PKK; in test [1]) were 2 nM and 203 nM, respectively.
The like results for `Cn1cnc2c1CC[C@H]2NC(=O)c1cnn(Cc2ccc(N3CC4CC4C3)nc2CCCO)c1` (stereo partly drawn) [Example 54, 1-[(6-{3-Azabicyclo[3.1.0]hexan-3-yl}-2-(3-hydroxypropyl)-pyridin-3-yl)methyl]-N-[(4R)-1-methyl-1H,4H,5H,6H-cyclopenta[d]imidazol-4-yl]-1H-pyrazole-4-carboxamide] were, in that order, 0.7 nM and 109 nM.
Consider `COCc1nc(N2CC3C(C2)C3(F)F)ccc1Cn1cc(C(=O)N[C@@H]2CCc3c2ncn3C)nn1` (stereo partly drawn) [Example 55, 1-[(6-{6,6-Difluoro-3-azabicyclo[3.1.0]hexan-3-yl}-2-(methoxymethyl)pyridin-3-yl)methyl]-N-[(4R)-1-methyl-1H,4H,5H,6H-cyclopenta[d]-imidazol-4-yl]-1H-1,2,3-triazole-4-carboxamide], for which the results for the IC50 (against Human PKK; in test [1]) were 2.3 nM and 250 nM, respectively.
As for `Cn1cnc2c1CC[C@H]2NC(=O)c1cnn(Cc2ccc(N3CC4(CC4)C3)nc2Cl)c1` [Example 56, 1-[(6-{5-Azaspiro[2.3]hexan-5-yl}-2-chloropyridin-3-yl)methyl]-N-[(4R)-1-methyl-1H,4H,5H,6H-cyclopenta[d]imidazol-4-yl]-1H-pyrazole-4-carboxamide], the IC50 on Human PKK amounted to 1.8 nM; in test [1], 586 nM.
`Cn1cnc2c1CC[C@H]2NC(=O)c1cn(Cc2ccc(N3CC4C(C3)C4(F)F)nc2Cl)cn1` (stereo partly drawn) [Example 57, 1-[(2-Chloro-6-{6,6-difluoro-3-azabicyclo[3.1.0]-hexan-3-yl}pyridin-3-yl)methyl]-N-[(4R)-1-methyl-1H,4H,5H,6H-cyclopenta[d]imidazol-4-yl]-1H-imidazole-4-carboxamide]: the IC50 against Human PKK is 0.6 nM; in test [1], 166 nM.
The like results for `Cn1cnc2c1CC[C@H]2NC(=O)c1cnn(Cc2cnc(N3CC4CC4C3)nc2CO)c1` (stereo partly drawn) [Example 62, 1-[(2-{3-Azabicyclo[3.1.0]hexan-3-yl}-4-(hydroxymethyl)-pyrimidin-5-yl)methyl]-N-[(4R)-1-methyl-1H,4H,5H,6H-cyclopenta[d]imidazol-4-yl]-1H-pyrazole-4-carboxamide] were, in that order, 14 nM and 769 nM.
Taken in the same sequence, the figures for `Cn1cnc2c1CC[C@H]2NC(=O)c1cn(Cc2ccc(N3CC4C(C3)C4(F)F)nc2)cn1` (stereo partly drawn) [Example 63, 1-[(6-{6,6-Difluoro-3-azabicyclo[3.1.0]hexan-3-yl}pyridin-3-yl)methyl]-N-[(4R)-1-methyl-1H,4H,5H,6H-cyclopenta[d]imidazol-4-yl]-1H-imidazole-4-carboxamide] were 3 nM and 203 nM.
With `Cn1cnc2c1CC[C@H]2NC(=O)c1cn(Cc2ccc(N3CC4CC4C3)nc2C(F)F)cn1` (stereo partly drawn) [Example 64, 1-[(6-{3-Azabicyclo[3.1.0]hexan-3-yl}-2-(difluoromethyl)-pyridin-3-yl)methyl]-N-[(4R)-1-methyl-1H,4H,5H,6H-cyclopenta[d]imidazol-4-yl]-1H-imidazole-4-carboxamide], the values for the IC50 (at Human PKK; in test [1]) were 0.7 nM and 221 nM, respectively.
Turning to `Cn1cnc2c1CC[C@H]2NC(=O)c1cnn(Cc2ccc(N3CC4CC4C3)nc2C(C)(C)C#N)c1` (stereo partly drawn) [Example 65, 1-[(6-{3-Azabicyclo[3.1.0]hexan-3-yl}-2-(1-cyano-1-methylethyl)pyridin-3-yl)methyl]-N-[(4R)-1-methyl-1H,4H,5H,6H-cyclopenta[d]-imidazol-4-yl]-1H-pyrazole-4-carboxamide], the IC50 at Human PKK worked out at 1.4 nM; in test [1] it was 1230 nM.
The like results for `CCCc1nc(N2CC3C(C2)C3(F)F)ccc1Cn1cnc(C(=O)N[C@@H]2CCc3c2ncn3C)c1` (stereo partly drawn) [Example 66, 1-[(6-{6,6-Difluoro-3-azabicyclo[3.1.0]hexan-3-yl}-2-propylpyridin-3-yl)methyl]-N-[(4R)-1-methyl-1H,4H,5H,6H-cyclopenta[d]imidazol-4-yl]-1H-imidazole-4-carboxamide] were, in that order, 0.7 nM and 839 nM.
With `Cn1cnc2c1CC[C@H]2NC(=O)c1cnn(Cc2ccc(N3CC4C(C3)C4(F)F)nc2C2CCC2)c1` (stereo partly drawn) [Example 67, 1-[(2-Cydobutyl-6-{6,6-difluoro-3-azabicyclo[3.1.0]hexan-3-yl}pyridin-3-yl)methyl]-N-[(4R)-1-methyl-1H,4H,5H,6H-cyclopenta[d]imidazol-4-yl]-1H-pyrazole-4-carboxamide], the IC50 against Human PKK turned out to be 3.1 nM; in test [1] it was 635 nM.
As for `Cc1nc(N2CC3(CC3)C2)ccc1Cn1cc(C(=O)N[C@@H]2CCc3c2ncn3C)nn1` [Example 68, 1-[(6-{5-Azaspiro[2.3]hexan-5-yl}-2-methylpyridin-3-yl)-methyl]-N-[(4R)-1-methyl-1H,4H,5H,6H-cyclo-penta[d]imidazol-4-yl]-1H-1,2,3-triazole-4-carboxamide], the figures for the IC50 (against Human PKK; in test [1]) were 1.4 nM and 637 nM, respectively.
On to `CCCc1nc(N2CC3C(C2)C3(F)F)ccc1Cn1cc(C(=O)N[C@@H]2CCc3c2ncn3C)cn1` (stereo partly drawn) [Example 69, 1-[(6-{6,6-Difluoro-3-azabicyclo[3.1.0]hexan-3-yl}-2-propylpyridin-3-yl)methyl]-N-[(4R)-1-methyl-1H,4H,5H,6H-cyclopenta[d]imidazol-4-yl]-1H-pyrazole-4-carboxamide], for which the IC50 worked out at 0.9 nM against Human PKK and 328 nM in test [1].
On to `Cc1nc(N2CC3CC3C2)ccc1Cn1cc(C(=O)N[C@@H]2CCc3c2ncn3C)c(C#N)n1` (stereo partly drawn) [Example 70, 1-[(6-{3-Azabicyclo[3.1.0]hexan-3-yl}-2-methylpyridin-3-yl)methyl]-3-cyano-N-[(4R)-1-methyl-1H,4H,5H,6H-cyclopenta[d]imidazol-4-yl]-1H-pyrazole-4-carboxamide], for which the IC50 at Human PKK was 0.8 nM; in test [1] it was 797 nM.
The like results for `Cn1cnc2c1CC[C@H]2NC(=O)c1cnn(Cc2ncc(N3CC4CC4C3)cn2)c1` (stereo partly drawn) [Example 71, 1-[(5-{3-Azabicyclo[3.1.0]hexan-3-yl}pyrimidin-2-yl)methyl]-N-[(4R)-1-methyl-1H,4H,5H,6H-cyclopenta[d]imidazol-4-yl]-1H-pyrazole-4-carboxamide] were, in that order, 151 nM and 9310 nM.
With `Cn1cnc2c1CC[C@H]2NC(=O)c1cn(Cc2ccc(N3CC4CC4C3)nc2)cn1` (stereo partly drawn) [Example 72, 1-[(6-{3-Azabicyclo[3.1.0]hexan-3-yl}pyridin-3-yl)methyl]-N-[(4R)-1-methyl-1H,4H,5H,6H-cyclopenta[d]imidazol-4-yl]-1H-imidazole-4-carboxamide], the IC50 was 3.3 nM on Human PKK and 831 nM in test [1].
For the compound `Cn1cnc2c1CC[C@H]2NC(=O)c1cnn(Cc2ccc(N3CC4(CC4)C3)nc2)c1` [Example 73, 1-[(6-{5-Azaspiro[2.3]hexan-5-yl}pyridin-3-yl)-methyl]-N-[(4R)-1-methyl-1H,4H,5H,6H-cyclopenta[d]imidazol-4-yl]-1H-pyrazole-4-carboxamide], the IC50 on Human PKK was 9.6 nM; in test [1], 498 nM.
For the compound `Cn1cnc2c1CC[C@H]2NC(=O)c1cn(Cc2ccc(N3CC4(CC4)C3)nc2)cn1` [Example 74, 1-[(6-{5-Azaspiro[2.3]hexan-5-yl}pyridin-3-yl)-methyl]-N-[(4R)-1-methyl-1H,4H,5H,6H-cyclopenta[d]imidazol-4-yl]-1H-imidazole-4-carboxamide], the IC50 stood at 6.9 nM against Human PKK and 321 nM in test [1].
For `CCc1nc(N2CC3C(C2)C3(F)F)ccc1Cn1cnc(C(=O)N[C@@H]2CCc3c2ncn3C)c1` (stereo partly drawn) [Example 76, 1-[(6-{6,6-Difluoro-3-azabicyclo[3.1.0]hexan-3-yl}-2-ethylpyridin-3-yl)methyl]-N-[(4R)-1-methyl-1H,4H,5H,6H-cyclopenta[d]imidazol-4-yl]-1H-imidazole-4-carboxamide], the IC50 against Human PKK turned out to be 0.6 nM; in test [1] it was 270 nM.
